Patent US20070129430A1, “Agent for enhancing the production of collagen, their preparation and use” (priority 2003, published 2007)

Experiments:
[1] = test system: TGF-β production in human fibroblasts (NHDF cells); assay: TGF-β production in human fibroblasts (TGF-β1 Emax ImmunoAssay System); assay type: cell-based; conditions: for enhancement of TGF-β production: concrete data not shown; for TGF-β production level: 24 hours, culture supernatant
Protocol: NHDF cells, a human fibroblast, commercialized by Kurabo Industries Ltd., Okayama, Japan, were seeded in 96-well microplates (commercialized by Becton Dickinson, N.J., USA) with a DMEM medium supplemented with 10% (v/v) fetal calf serum to give a cell density of 2.5×10^4 cells/well, and incubated for 24 hours under a 5% (v/v) CO2 condition. Thereafter, the supernatant in each microplate was removed, replaced with a fresh DMEM medium containing 0, 0.5 or 1.5 mM of 10-HDA and 0.2 μg/ml of AA2G, and cultured for 24 hours. After completion of the culture, the level of TGF-β in a supernatant of each well of the microplates was quantified by using “TGF-β1 E MAX IMMUNO ASSAY SYSTEM”, commercialized by Promega Corp., Wis., USA, and the data were statistically handled.

[2] = test system: NHDF cells; assay: collagen assay: collagen production level of NHDF cells (Sircol Soluble Collagen Assay Kit); assay type: cell-based, human; conditions: for concentration dependence of the action of enhancing collagen production (FIG. 3) / order of the levels of action of enhancing collagen production next to 10-HDA (FIG. 3): 0.02 to 1.5 mM fatty acid with 50 μM AA2G; for action of enhancing collagen production (FIG. 1): 5 days culture; for action of enhancing the collagen production by L-ascorbic acid: used in combination with L-ascorbic acid
Protocol: NHDF cells, a human fibroblast, were seeded in a 96-well microplate (commercialized by Becton Dickinson, N.J., USA) with […] (designated as “DMEM medium” hereinafter, commercialized by Nissui Pharmaceutical Co., Ltd., Tokyo, Japan)(pH 7.1 to 7.4), supplemented with 10% (v/v) fetal calf serum and an adequate amount of penicillin, to give a cell density of 2.5×10^4 cells/well, and incubated at 37° C. for 24 hours under a 5% (v/v) CO2 condition. Thereafter, the supernatant was replaced with 200 μl of a DMEM medium supplemented with a sample having a prescribed concentration and/or 50 μM of L-ascorbic acid 2-glucoside (a product name of “AA2G” with a purity of 98.0% or over, produced by Hayashibara Biochemical Laboratories, Inc., Okayama, Japan), and further cultured for another five days. After completion of the culture, the collagen production level from cells in each well of the microplate was quantified by using “Sircol™ Soluble Collagen Assay Kit”, commercialized by Biocolar Ltd., Northern Ireland.
The action of enhancing the collagen production by 10-HDA was examined by the collagen assay shown in Experiment 1. In the collagen assay, 150 μg/ml of 10-HDA and/or a DMEM medium containing 50 μM of the same AA2G as used in Experiment 1 were used to examine the action of enhancing the collagen production by 10-HDA. As a control, there were provided two systems with 50 μM of AA2G or a DMEM medium free of AA2G, both of which were free of sample. The results are in FIG. 1.
The relationship between the concentration of 10-HDA and the action of enhancing collagen production was also studied. In the collagen assay, using a DMEM medium containing 0 to 300 μg/ml of 10-HDA as a sample and 50 μM of AA2G, the action of enhancing the collagen production by 10-HDA was examined. As a control, a DMEM medium containing 50 μM of AA2G free of sample was provided. The results are in FIG. 2.
The results are in FIG. 3.
To examine the influence of 10-HDA on the action of enhancing the collagen production by L-ascorbic acid or AA2G, the following experiment was conducted: In the collagen assay shown in Experiment 1, the levels of collagen production in cell culture by L-ascorbic acid or 10-HDA were compared and analyzed using a DMEM medium containing as a sample 0, 0.1, 0.2 or 0.5 mg/ml of 10-HDA and 50 μM of L-ascorbic acid or AA2G as L-ascorbic acids in terms of L-ascorbic acid, and another DMEM medium containing as a sample 0, 0.1, 0.2 or 0.5 mg/ml of 10-HDA but free of L-ascorbic acids. The results are in FIG. 4.

CCCCCCCC=CC(=O)O [2-decenoic acid]
enhancement of TGF-β production [1]: also enhance TGF-β production
concentration dependence of the action of enhancing collagen production (FIG. 3) [2]: roughly in a concentration dependent manner
order of the levels of action of enhancing collagen production next to 10-HDA (FIG. 3) [2]: in the order of 10-hydroxydecanoic acid, 2-decenoic acid, decanoic acid, and sebacic acid

O=C(O)C=CCCCCCCCO [10-HDA, 10-hydroxy-2-decenoic acid]
TGF-β production level ([1]; 0.5 mM 10-HDA with 0.2 μg/ml AA2G): 292 ± 68 pg/mL
TGF-β production level ([1]; 1.5 mM 10-HDA with 0.2 μg/ml AA2G): 378 ± 74 pg/mL
enhancement of TGF-β production in human fibroblasts ([1]; in the presence of AA2G, 0 to 1.5 mM): enhances the TGF-β production in human fibroblasts in a concentration dependent manner
action of enhancing collagen production (FIG. 4) ([2]; 0, 0.1, 0.2 or 0.5 mg/ml 10-HDA in the presence of 50 μM AA2G (in terms of L-ascorbic acid)): action of enhancing collagen production in a concentration dependent manner
action of enhancing collagen production (FIG. 4) ([2]; 0, 0.1, 0.2 or 0.5 mg/ml 10-HDA in the presence of 50 μM L-ascorbic acid): action of enhancing collagen production in a concentration dependent manner
concentration dependence of the action of enhancing collagen production (FIG. 2) ([2]; 0 to 300 μg/ml 10-HDA with 50 μM AA2G): concentration-dependent action of enhancing collagen production
action of enhancing collagen production (FIG. 1) ([2]; 150 μg/ml 10-HDA in combination with 50 μM AA2G): distinct action of enhancing collagen production
action of enhancing collagen production (FIG. 1) ([2]; 150 μg/ml 10-HDA, absence of AA2G): did not show the action of enhancing collagen production
action of enhancing collagen production (FIG. 3) ([2]; 0.02, 0.06, 0.17, 0.5 or 1.5 mM fatty acid with 50 μM AA2G): significantly high action of enhancing collagen production
action of enhancing collagen production with AA2G relative to that attained with L-ascorbic acid (FIG. 4) ([2]; 10-HDA with 50 μM AA2G versus 50 μM L-ascorbic acid): about two-times higher
action of inducing collagen production when used alone ([2]; used alone, without L-ascorbic acid): did not show an action of inducing collagen production
action of enhancing the collagen production by L-ascorbic acid [2]: exhibited an action of enhancing the collagen production by L-ascorbic acid
action of enhancing the collagen production by L-ascorbic acid ([2]; listed as Ingredient X): This result coincided with that of Ingredient X
concentration giving maximum action of enhancing collagen production (FIG. 3) ([2]; with 50 μM AA2G): ≥ 0.17 mM

O=C(O)CCCCCCCCCO [10-hydroxydecanoic acid]
enhancement of TGF-β production [1]: also enhance TGF-β production
concentration dependence of the action of enhancing collagen production (FIG. 3) [2]: roughly in a concentration dependent manner
order of the levels of action of enhancing collagen production next to 10-HDA (FIG. 3) [2]: in the order of 10-hydroxydecanoic acid, 2-decenoic acid, decanoic acid, and sebacic acid

O=C1O[C@H]([C@@H](O)CO)C(O)=C1O[C@H]1O[C@H](CO)[C@@H](O)[C@H](O)[C@H]1O [AA2G, L-ascorbic acid 2-glucoside]
action of enhancing collagen production of L-ascorbic acid derivatives used in combination with fatty acids ([2]; in combination with fatty acids such as 10-HDA, concrete data not shown): more remarkable action of enhancing collagen production

CCCCCCCCCC(=O)O [decanoic acid]
enhancement of TGF-β production [1]: also enhance TGF-β production

O=C(O)CCCCCCCCC(=O)O [sebacic acid]
enhancement of TGF-β production [1]: also enhance TGF-β production
